Assay results from patent US20040121912A1, “Method for controlling root growth using paraquat” (priority 2002, published 2004).
“Also recorded” adds a separate entry of the source.

System: black willow (Salix nigra) roots
Test: Foam application to exposed roots of greenhouse-grown black willow cuttings; roots evaluated 25 days after treatment
Conditions: for Dry Weight of Roots, Dead Roots / Dry Weight of Roots, Live Roots: 20 min contact, twenty-five days following treatment, average of 24 willow cuttings; for Effect on treated roots (visual inspection, living roots / root growth): foam application, twenty-five days following treatment (FIG. 3, FIG. 4)
Procedure: Individual branch cuttings of black willow (Salix nigra) were collected and grown in containers according to methods described in Groninger and Bohanek 2000, J. of Plant Growth Regulation 19:453-456. The cuttings were rooted in 262 ml tubes containing a 1:1 mixture of peat moss and white washed play sand. Tubes were perforated with a 2 cm^2 hole in the bottom and four 1.4 cm^2 holes on the side, 2 cm from the bottom of the tube. Cuttings were grown under greenhouse conditions in racks containing 12 tubes each with one cutting per tube. To facilitate root growth outside of the tube, the racks were placed in aluminum pans and positioned so that the base of each tube was suspended in dilute nutrient solution. Water was added as needed and a 20-20-20-NPK fertilizer was provided at a rate of 0.04 g/cutting per week into the pan. Root growth was further facilitated by maintaining the root zone in darkness by covering gaps between the edge of the rack and the pan with aluminum foil. When cuttings had been growing for approximately four months, intermingling exposed roots from adjacent cuttings were separated from one another and fine roots were allowed to regrow. Treatment were initiated when shoots averaged 0.8 meters in height with healthy foliage. At the time of treatment, each cutting produced profuse growth of roots 0.3 cm in diameter or less.
Roots of the cuttings were exposed to paraquat, diquat, Rootex, a rooting hormone, and a control. Paraquat (Gramoxone Max®, Syngenta, containing 43.8% paraquat) was applied to roots cuttings at two rates, 2.0 and 4.0 ml/L. Diquat (Reward®, Syngenta, containing 37.3% diquat) was applied at 4.0 ml/L. Each treatment of the four treatments were applied in 1.0 L water solution with a 2% alkyl polyglycoside-based foaming agent, AU-340 (Adjuvants Unlimited, Tulsa, Okla.) using a foam generator to simulate a standard application of chemicals in controlling tree roots in sewer lines. Roots were placed in contact with foam solution for 20 minutes. […] Upon removal of foam solution, cuttings and their exposed roots were returned to pretreatment nutrient conditions with residual foam permitted to maintain contact with exposed roots.
Evaluation of roots was conducted twenty-five days following treatment. Roots were visually inspected, harvested, separated into living and dead groups, dried and weighed for dry mass determination.

| SMILES | Dry Weight of Roots, Dead Roots (4.0 ml/L of stock in foam) | Dry Weight of Roots, Live Roots (4.0 ml/L of stock in foam) | Effect on treated roots (visual inspection, living roots / root growth) | Dry Weight of Roots, Dead Roots (2.0 ml/L of stock in foam) | Dry Weight of Roots, Live Roots (2.0 ml/L of stock in foam) | Damage to the upper portion of the trees (green house testing, applied as a dense foam to tree roots) |
| --- | --- | --- | --- | --- | --- | --- |
| c1cc[n+]2c(c1)-c1cccc[n+]1CC2 [Diquat] | 0.9 g/willow cutting | 0 g/willow cutting | No living roots | – | – | – |
| C[n+]1ccc(-c2cc[n+](C)cc2)cc1 [Paraquat, 1,1′-dimethyl-4,4′-bipyridium ion] | 2.2 g/willow cutting | 0 g/willow cutting | destruction of the test roots; also recorded: No living roots | 0.7 g/willow cutting | 0 g/willow cutting | without causing damage |
